Results on three compounds are retold here after EP3570868B1, “[…] ANTIMICROBIAL PEPTIDES AND THEIR APPLICATIONS FOR THE TREATMENT AND PREVENTION OF MUSCU[…]” (Ustav Organicke Chemie a Biochemie AV CR, v.v.i., priority 2017, dated 2018).

Peptide text beside a SMILES is read from it.

In series [1] the test system is Candida albicans yeast (clinical isolate Olomouc). In words: Comparison of two similar halictin peptides for biofilm formation on the implant surface (yeast pipetted into a hole between implants). In kind it is cell-based. The note with it: 3.5 mg peptide in 100 mg powder cement component; two days; implant without peptide 1.8 × 10^3. The method, then:
The experiment was performed under similar conditions as described in Example 5. Here, 100 mg of the powder cement component was used to prepare a paste, which was mixed with in 3.5 mg of peptide XIII and subsequently 52 µl of liquid component. The resulting paste was thoroughly mixed and then pressed into a hole prepared in the spongy part of the bone. To a next hole in the spongy part of the same bone a paste was pressed, containing comparative peptide Hal 2/4 (3.5 mg) with the sequence H-[…]NH2, which was also prepared from 100 mg of the powder component and 52 µl of the liquid component. The third hole was filled with paste without peptide prepared from the same amount of components. The Candida albicans yeast (clinical isolate Olomouc), grown in YPG, was pipetted in the hole excavated between implants equidistant (approximately 1 cm) from each. From there, the yeast penetrated through the bone tissue and was deposited on the implant with consequent formation of biofilms.
Then the implants in closed tubes with 0.4 ml of saline were treated ultrasonically four times for three minutes with occasional shaking. This way, microbial biofilm on the surface of the implant was disrupted and microbes loosed into the physiological saline. The resulting suspension was then diluted in a decimal dilution series for culturing on agar. […]

Series [2] relates to S.e. (clin. isolate Motol). Format: cell-based, Staphylococcus epidermidis. The note with it: 37° C for 20 h. The method, then: (§1) Gram-positive bacteria (Bacillus subtilis, Staphylococcus aureus, Staphylococcus epidermidis and Enterococcus faecalis), Gram-negative bacteria (Escherichia coli and Pseudomonas aeruginosa) and the yeast (Candida albicans) were grown to exponential phase and then were diluted with fresh medium. BHI medium (Oxoid, Great Britain) was used for Enterococcus faecalis; YPD medium containing yeast extract, peptone and glucose was used for Candida albicans and LB medium (Sigma, Czech Republic) was used for the remaining microorganisms. Then the microorganisms were added to the solutions of the tested antimicrobial peptides in LB medium in multi-well plates, so that the final peptide concentration it the wells was in the range of 0.5 to 100 µmοl.1^-1. The plates were incubated at 37° C for 20 h while being continuously shaken in a Bioscreen C (Oy Growth Curves AB Ltd., Helsinki, Finland). Absorbance was measured at 540 nm every 15 min. Antimicrobial activity (Table 2) was determined as a quantitative minimum inhibitory concentration (MIC) by observing bacterial growth in the presence of different concentrations of tested peptides. In the experiments, ca 10^5 CFU of bacteria or candida per well were used. Tetracycline in a concentration range of 0.5 - 100 µmol.1^-1 was used as a standard.
(§2) Clinical isolates of bacteria were obtained from University Hospital in Motol, Prague, Czech Republic and from Liberec Regional Hospital, Czech Republic. Methicillin resistant Staphylococcus aureus (MRSA) 6271 and Pseudomonas aeruginosa 5482 were from the Czech National Collection of Type Cultures, the National Institute of Public Health, Prague, Czech Republic. Other bacteria were from the Czech Collection of Microorganisms, Brno, Czech Republic. Candida albicans came from the Faculty of Medicine, Palacky University, Olomouc, Czech Republic. Candida tropicalis ATCC 750 and Candida glabrata DSY 565 were obtained from the Institute of Physiology, Academy of Sciences of the Czech Republic.

In series [3] the test system is S. aureus (clin. isolate Liberec). In words: Induced osteomyelitis model in femur heads: effect of peptides released from carrier on infection in the bone graft. Format: cell-based. The note with it: ChronOS (200 mg), 10 mg, two days. Here is the method:
(§3) 3-4 holes of a diameter of 5 mm and a depth of 10 mm are drilled with a surgical spoon into a femur head under sterile conditions (spongy part of the bone in the resection site). Thereafter, this bone graft is put into a beaker of appropriate size and lined with sterile gauze squares. The gauze is moistened with sterile physiological saline to prevent drying of the bone. Then, suspension of multiplied microbes in an appropriate medium (50-100 µl) at a concentration of 10^7 to 10^9 CFU is sequentially applied to the prepared holes in the bone graft and allowed to incubate for 1-2 days. […] Beaker with the infected bone graft is covered with a sterile Petri dish. During the experiment, induced osteomyelitis models are kept protected from light at room temperature.
(§4) After the incubation, the infected holes in the bone are filled with a mixture of the local carrier, and a peptide selected from the series of peptides of formulae I to XIII or their specific enantiomers (Figure 1). For comparison, one of the holes is filled with the local carrier without peptide, or the carrier filled with antibiotic (vancomycin or gentamicin). A commercially available two-component material supplied by Synthes (Synthes GmbH, Switzerland) under the name ChronOS Inject was used as the carrier. Its solid component comprises a mixture of calcium phosphates CaHPO4.2H2O and Ca3(PO4)2 and additives, the liquid component is 0.5% (vol./vol.) solution of hyaluronic acid.
(§5) After two days, the filling is thoroughly removed with a surgical spoon and empty holes are wiped with moistened sterile cotton swab, which is then extracted into 400 µl physiological saline. The extract is diluted in a tenfold serial dilution and each diluted suspension is cultured on agar in Petri dishes; the culture is evaluated on the following day. […] The result of the peptide effect is also compared with the result of the effect of antibiotics. In some cases, microbiological examination of the bone tissue taken with a surgical spoon from a deeper area of the drilled holes is performed. […] Table 3. Evaluation of the effect of antimicrobial peptides released from the carrier on an infection in the bone graft. Effect of antimicrobial activity is expressed in the number of CFU (colony-forming units) in the infected hole after swabbing.

For series [4], the system named is S. epidermidis (clin. isolate Motol). The series is described as above. In kind it is cell-based. Particulars: ChronOS (300 mg); 10 mg, separate holes; two days; carrier without peptide 1,2x10^5. Here is the method:
as §3, §4, §5

Series [5] relates to Staphylococcus aureus (MRSA 6271). Put plainly: Eradication of the infection inside the spongy bone tissue (bone grafts, peptide in carrier). In kind it is cell-based. The note with it: carrier (200 mg) with peptide VIII (10 mg), two days. Here is the method:
Experiments was carried out similarly as described above using two graft bones. The suspension of Staphylococcus aureus (MRSA 6271) in LB medium (50 - 100 µl) in the concentration 10^9 CFU/ml was pipetted into two holes drilled in each bone graft. On the next day the one hole in one bone graft was filled with the carrier (200 mg) blended with peptide VIII (10 mg). The second hole was filled with carrier alone (200 mg). In the second bone graft the two holes were filled identically.
The experiments were evaluated after two days of the treatment by the comparison of the number of bacterial colonies (CFU/ml) related to the infected hole in which the peptide was released from the carrier and acted against the infection, against the number of the colonies related to the infected hole which was filled only with the carrier alone. The results of these two independent experiments which are summarized in Table 5 clearly show high efficacy of the peptide VIII. Table 5. Effect of peptide VIII on the eradication of the infection inside the spongy bone tissue Carried out in two independent experiments.

Series [6] has as its system P.a. 5482. In kind it is cell-based, Pseudomonas aeruginosa. Particulars: 37° C for 20 h. Here is the method: as §1, §2
Series [7] deals with P.a. (clin. isolate Liberec). Format: cell-based, Pseudomonas aeruginosa. The note with it: 37° C for 20 h. The method, then: as §1, §2
The test system of series [8] is Candida albicans. In kind it is cell-based. The note with it: C.a.; 37° C for 20 h. The method, then: as §1, §2
The test system of series [9] is Escherichia coli. In kind it is cell-based. The note with it: E.c.; 37° C for 20 h. The method, then: as §1, §2
Series [10] relates to Bacillus subtilis. Format: cell-based. The note with it: B.s.; 37° C for 20 h. The method, then:
as §1, §2

For series [11], the system named is human red blood cells. Put plainly: Determination of haemolytic activity. Particulars: human red blood cells (5% v/v), 1 h at 37 °C; concentration for lysis of 50% of erythrocytes. Format: cell-based. Here is the method:
The peptides in the concentrations 2-400 µmol.1^-1 were incubated with the suspension of human red blood cells (5% v/v) for 1 h at 37 °C in a physiological solution at a final volume of 0.2 ml. The samples were then centrifuged for 5 min at 250 g. The absorbance of the supernatant was determined at 540 nm. 0.2% (v/v) TRITON X100 was used as a control for 100% haemolysis. Haemolytic activity is expressed as the peptide concentration required for lysis of 50% of human erythrocytes in the assay (LC50). Table 2. Antimicrobial and haemolytic activity of I up to XIII peptides and tetracycline.

Series [12] deals with E.f. (clin. isolate Motol). In kind it is cell-based, Enterococcus faecalis. Particulars: 37° C for 20 h. Here is the method: as §1, §2
For series [13], the system named is MRSA (clin. isolate Liberec). In kind it is cell-based, Staphylococcus aureus. The note with it: 37° C for 20 h. The method, then: as §1, §2
Series [14] concerns MRSA (clin. isolate Motol). In kind it is cell-based, Staphylococcus aureus. Particulars: 37° C for 20 h. Here is the method:
as §1, §2

The test system of series [15] is MRSA 6271. In kind it is cell-based, Staphylococcus aureus. The note with it: 37° C for 20 h. The method, then:
as §1, §2

The test system of series [16] is MRSA (clin. isolate Liberec). Put plainly: Biofilm formation on the surface of a bone cement implant in femur heads. In kind it is cell-based, Staphylococcus aureus. The note with it: two days, cement without peptide 7,0x10^6.
Description: The resulting elastic paste is placed into a 2 ml plastic syringe (without needle) and pressed into the infected holes in the spongy part of the bone, where it polymerizes and hardens. For comparison, other similarly infected holes are filled with cement containing only an antibiotic or antimycotic agent. For comparison, a Vancogenx® cement (Tecresa S. p. A., Italy) is used, made from a mixture of a powdered polymer component containing vancomycin and gentamicin. The mixture in an amount of 125 mg is mixed with liquid monomer (50-60 µl) and then pressed into the openings as described above. In another embodiment, the cements are applied to uninfected holes, allowed to harden, and then microbes are pipetted into the hole excavated between implants. From there they penetrate through bone tissue and settle on the implants with consequent formation of biofilms.
After two days, implants are removed with metal spikes and tweezers, mechanically cleaned from debris of bone tissue, and washed four times with physiological saline (0.5 ml) in plastic tubes to remove any residual planktonic microbes or bone cells from their surface. The implants in closed tubes with 0.4 ml saline are then sonicated four times for 3 min with occasional shaking. The of microbial biofilm on the surface of the implant is thus disrupted and microbes are loosed into the physiological saline. […]

`CC[C@H](C)[C@H](NC(=O)[C@H](CCCCN)NC(=O)[C@H](CCCCN)NC(=O)[C@H](CC(C)C)NC(=O)[C@H](CC(C)C)NC(=O)[C@H](CO)NC(=O)[C@H](CCSC)NC(=O)[C@H](Cc1c[nH]c2ccccc12)NC(=O)[C@@H](N)CCCCN)C(=O)N[C@@H](CC(C)C)C(=O)N[C@@H](CCCCN)C(N)=O` [Hal 4/2, reference compound] (H-KWMSLLKKILK-NH2): the “number of colonies from the surface of the implant” value in series [1] is reported as 2.8 × 10^2 CFU/implant.

For `CC[C@H](C)[C@H](NC(=O)[C@H](CCCCN)NC(=O)[C@H](CCCCN)NC(=O)[C@H](CC(C)C)NC(=O)[C@H](CC(C)C)NC(=O)[C@H](CCCCN)NC(=O)[C@@H](NC(=O)[C@H](Cc1c[nH]c2ccccc12)NC(=O)[C@H](CCCCN)NC(=O)CN)C(C)C)C(=O)N[C@@H](CC(C)C)C(=O)N[C@@H](CCCCN)C(N)=O` [Peptide VIII] (H-GKWVKLLKKILK-NH2), the “Antimicrobial activity MIC” value in series [2] was 2,5 µmol.l^-1; in [6], 3,0 µmol.l^-1; in series [7] it was 12,7 µmol.l^-1; in series [8] it was 6,3 µmol.l^-1; in [9] it was 6,3 µmol.l^-1; in [10], 2,0 µmol.l^-1. In addition, the “Antimicrobial activity MIC” value in series [12] was greater than 100 µM; in series [13], 5,0 µmol.l^-1; in series [14], 10,0 µmol.l^-1; in series [15], 9,0 µmol.l^-1. In addition, the CFU/hole in series [3] (separate holes, carrier without peptide 3,9x10^6) is recorded as 0 CFU/hole; in series [4] it was 0 in all cases CFU/hole; in series [5] (first experiment, no peptide 1.2x10^7), 0 CFU/ hole; in series [5] (second experiment, no peptide 3.6x10^6), 4.8x10^2 CFU/ hole. Also, the “Hemolytic activity LC50” value in series [11] is greater than 400 µmol/L.

In series [16], `CC[C@H](C)[C@H](NC(=O)[C@H](CCCCN)NC(=O)[C@H](CCCCN)NC(=O)[C@H](CC(C)C)NC(=O)[C@H](CCSC)NC(=O)[C@H](CCCCN)NC(=O)[C@H](CCSC)NC(=O)[C@H](Cc1c[nH]c2ccccc12)NC(=O)[C@H](CCCCN)NC(=O)CN)C(=O)N[C@@H](CC(C)C)C(=O)N[C@@H](CCCCN)C(N)=O` [XI] (H-GKWMKMLKKILK-NH2) registered a CFU/implant of 0 CFU/implant. Further, the “Antimicrobial activity MIC” value is recorded as 3,2 µmol.l^-1 in series [2]; 5,3 µmol.l^-1 in series [6]; 12,7 µmol.l^-1 in [7]; 12,7 µmol.l^-1 in [8]; 20,0 µmol.l^-1 in series [9]; 2,5 µmol.l^-1 in series [10]. The “Antimicrobial activity MIC” value in [12] was greater than 100 µM; in series [13] it was 10,0 µmol.l^-1; in [14], 20,0 µmol.l^-1; in series [15], 20,0 µmol.l^-1. For the same compound, in [3] (carrier without peptide 2,0x10^6), the CFU/hole was 2,5 x10^3 CFU/hole. Besides, the “Hemolytic activity LC50” value in series [11] is on record as >>200 µmol.l^-1.
